Test [1] is described as follows: Inhibition of mouse brain monoamine oxidase.
Test [2] concerns the target T1, Amine oxidase [flavin-containing] A (Mus musculus, UniProt Q64133).
T1 sequence (Q64133 whole entry): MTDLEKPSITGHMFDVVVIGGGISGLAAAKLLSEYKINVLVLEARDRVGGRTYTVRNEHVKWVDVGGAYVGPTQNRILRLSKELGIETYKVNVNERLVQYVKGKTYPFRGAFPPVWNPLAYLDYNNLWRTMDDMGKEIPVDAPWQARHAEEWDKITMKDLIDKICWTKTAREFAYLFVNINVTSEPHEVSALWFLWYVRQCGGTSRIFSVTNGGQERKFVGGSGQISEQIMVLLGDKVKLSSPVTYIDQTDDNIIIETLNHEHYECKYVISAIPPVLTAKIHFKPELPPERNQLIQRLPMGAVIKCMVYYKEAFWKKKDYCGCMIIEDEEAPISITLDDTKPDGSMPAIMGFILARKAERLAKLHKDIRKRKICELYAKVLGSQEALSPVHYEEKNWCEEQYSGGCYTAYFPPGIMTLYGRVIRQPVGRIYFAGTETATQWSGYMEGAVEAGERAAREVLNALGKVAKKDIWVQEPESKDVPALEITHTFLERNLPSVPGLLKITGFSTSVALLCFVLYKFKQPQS
Briefly: Inhibition of mouse brain MAO-A.

Test [3] concerns the target T2, Amine oxidase [flavin-containing] B (Mus musculus, UniProt Q8BW75).
T2 sequence (Q8BW75 whole entry): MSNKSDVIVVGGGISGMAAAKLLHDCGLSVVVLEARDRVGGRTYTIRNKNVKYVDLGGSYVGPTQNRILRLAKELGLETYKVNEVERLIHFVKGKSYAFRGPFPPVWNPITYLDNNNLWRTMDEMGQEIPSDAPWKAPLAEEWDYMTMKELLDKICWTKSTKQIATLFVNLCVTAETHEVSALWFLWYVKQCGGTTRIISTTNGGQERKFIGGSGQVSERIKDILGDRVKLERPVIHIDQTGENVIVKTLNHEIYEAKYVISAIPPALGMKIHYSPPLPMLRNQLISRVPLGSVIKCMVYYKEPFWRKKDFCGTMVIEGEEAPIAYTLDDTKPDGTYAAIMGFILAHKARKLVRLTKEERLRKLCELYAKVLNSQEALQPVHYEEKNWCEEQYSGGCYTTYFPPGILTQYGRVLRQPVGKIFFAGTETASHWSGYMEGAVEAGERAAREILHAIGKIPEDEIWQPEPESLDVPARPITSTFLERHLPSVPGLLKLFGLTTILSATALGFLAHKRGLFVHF
The test can be described thus: Inhibition of mouse brain MAO-B.

Test [4] has as its target T3, Amine oxidase [flavin-containing] B (Homo sapiens, UniProt P27338).
T3 sequence (P27338 whole entry): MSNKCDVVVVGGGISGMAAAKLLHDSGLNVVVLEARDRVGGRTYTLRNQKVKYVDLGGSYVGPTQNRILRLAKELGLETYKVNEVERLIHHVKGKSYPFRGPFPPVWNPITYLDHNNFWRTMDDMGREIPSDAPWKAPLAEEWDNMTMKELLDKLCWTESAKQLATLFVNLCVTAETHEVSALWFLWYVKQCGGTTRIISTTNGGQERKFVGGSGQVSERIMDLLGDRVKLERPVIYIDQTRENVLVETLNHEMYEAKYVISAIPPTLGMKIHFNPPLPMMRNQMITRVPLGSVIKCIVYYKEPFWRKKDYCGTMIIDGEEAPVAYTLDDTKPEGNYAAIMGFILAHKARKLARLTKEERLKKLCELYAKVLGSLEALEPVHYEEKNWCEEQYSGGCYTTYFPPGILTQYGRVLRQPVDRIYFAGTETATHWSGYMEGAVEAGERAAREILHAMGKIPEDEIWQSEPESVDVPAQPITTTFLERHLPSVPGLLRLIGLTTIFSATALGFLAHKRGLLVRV
Briefly: Inhibition of MAO-B (unknown origin).

For test [5], the species on record is Homo sapiens. The test can be described thus: Selectivity index, ratio of pIC50 for MAO-B (unknown origin) to pIC50 for MAO-A (unknown origin).
The species named for test [6] is Homo sapiens. The test can be described thus: Selectivity ratio for MAO-A (unknown origin) over MAO-B (unknown origin).
Test [7] has as its target T4, Amine oxidase [flavin-containing] A (Homo sapiens, UniProt P21397).
T4 sequence (P21397 whole entry): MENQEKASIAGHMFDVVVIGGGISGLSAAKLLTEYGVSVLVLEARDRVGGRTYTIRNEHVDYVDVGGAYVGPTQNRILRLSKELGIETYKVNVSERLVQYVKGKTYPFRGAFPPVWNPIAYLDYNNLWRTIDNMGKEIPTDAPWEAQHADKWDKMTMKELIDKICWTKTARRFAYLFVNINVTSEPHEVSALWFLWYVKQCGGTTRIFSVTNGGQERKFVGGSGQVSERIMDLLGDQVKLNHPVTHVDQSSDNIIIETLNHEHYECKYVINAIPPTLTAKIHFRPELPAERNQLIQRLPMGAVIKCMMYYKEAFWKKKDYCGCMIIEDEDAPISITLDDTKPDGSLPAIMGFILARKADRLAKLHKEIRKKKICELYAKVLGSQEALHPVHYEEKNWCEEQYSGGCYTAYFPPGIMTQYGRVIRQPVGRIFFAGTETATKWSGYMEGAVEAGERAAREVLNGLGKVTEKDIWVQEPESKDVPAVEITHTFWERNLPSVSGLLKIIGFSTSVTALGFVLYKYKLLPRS
The test can be described thus: Inhibition of MAO-A (unknown origin).

Test [8] in a line: Inhibition of mouse brain monoamine oxidase using kynuramine as substrate by fluorometric analysis.

By IC50 is commonly meant the concentration at which inhibition is half-maximal. Read a low IC50 as greater potency in that assay. Turning to `C=C(C)[C@H](O)CC/C(C)=C/COc1ccc2ccc(=O)oc2c1`, the results for the IC50 in test [1], in test [2] and in test [3] were 0.7 µM, 1.3 µM and 0.5 µM, respectively.

In test [4], `O=C(Cl)c1cc2cc(Cl)ccc2oc1=O` gave an IC50 of 0.01 µM.

`C/C=C(/C)C(=O)O[C@H]1[C@@H](OC(C)=O)c2c(ccc3ccc(=O)oc23)OC1(C)C` had an IC50 in test [1] of 27.4 µM.

Take `CC(C)=CCC/C(C)=C/COc1ccc2ccc(=O)oc2c1`: the IC50 turned out to be 1.7 µM in test [1], 3.46e-05 µM in test [2] and 0.6 µM in test [3].

Regarding `Cc1ccc2oc(=O)c(C(=O)O)cc2c1`, the Ratio pIC50 in test [5] was 2.8. This molecule had an IC50 in test [4] of 0.0191 µM.

For the molecule `CC1(C)OC(/C=C/COc2ccc3ccc(=O)oc3c2)=CC1=O`, in test [6], the Selectivity ratio came out at 850.

As to `COc1c2ccoc2cc2oc(=O)ccc12` [BERGAPTEN], the IC50 in test [1] and in test [7] was 13.8 µM in each case.

Take `O=C(O)c1cc2ccccc2oc1=O` [COUMARIN-3-CARBOXYLIC ACID]: the Ratio pIC50 in test [5] came to 2.94. This molecule gave an IC50 in test [4] of 0.0174 µM.

In the case of `O=c1ccc2cc(O)c(O)cc2o1` [ESCULETIN], the IC50 in test [8] was 31.1 µM.

Molecule `COc1cc2oc(=O)ccc2cc1O` [ISOSCOPOLETIN] displayed a 50% inhibitory concentration (IC50) in test [8] of 32.2 µM.

`COc1c(OCC=C(C)C)ccc2ccc(=O)oc12` [LACINARTIN]: the IC50 in test [1] came to 9.2 µM; in test [2] it was 5.7 µM; in test [3], 28.6 µM.

For `O=c1ccc2cc3ccoc3cc2o1` [PSORALEN], the concentration for half-maximal inhibition (IC50) is 35.8 µM in test [1] and 21.3 µM in test [7].

As for `COc1cc2ccc(=O)oc2cc1O` [SCOPOLETIN], it took 45 µM to reach half-maximal inhibition in test [8] (IC50).

The values are drawn from ChEMBL document CHEMBL2375267, “A comprehensive review on synthesis and designing aspects of coumarin derivatives as monoamine oxidase inhibitors for depression and Alzheimer's disease” (Bioorg Med Chem, 2013).
